A short description of assay [1]: Anti-obesity effect by repeated administration alone and in combination with semaglutide in ob/ob mice (Example 5). Format: in vivo. An excerpt: The ob/ob mouse has a mutation in the leptin gene resulting in leptin deficiency, and are characterized by hyperglycemia, insulin resistance, overeating, and obesity. 5-week-old male ob/ob mice (Jackson Laboratory, USA) were purchased from Raon Bio (Animal Inc., Republic of Korea). The ob/ob mice were acclimatized with normal food (Teklad Certified Irradiated Global 18% Protein Rodent Diet, 2918C, Harlan Co., USA) for 4 weeks, and drug treatment was started at 9 weeks of age. On the day before drug treatment, the mice were grouped based on the body weight of individual mice and random blood glucose levels determined by sampling at the tail vein (n=6 per group). Thereafter, 1 and 10 nmol/kg of FM9-6+Fc_hole alone, 10 and 30 nmol/kg of semaglutide alone, and FM9-6+Fc_hole and semaglutide at doses of 1+10 and 10+10 nmol/kg in combination were subcutaneously administered thereto a total of 10 times every 3 days (Q3D), and body weight and food intake were measured every day or every 3 days during the experimental period (29 days). Here, DPBS (Dulbecco's phosphate-buffered saline, Gibco, USA) was administered for vehicle treatment.

Assay [2] in a line: Anti-obesity effect alone and in combination with semaglutide in diet-induced obese (DIO) mice (Example 4). As to conditions: for Change in body weight (%) vs. day 0, Maximum efficacy: 8 weeks. Format: in vivo. An excerpt: Diet-induced obese (DIO) mice, obtained by feeding mice with high-fat food, are characterized by obesity, hyperglycemia, and insulin resistance. Diet-induced obese mice (Taconic, USA) resulting from feeding C57BL/6N mice with high-fat food (60 kcal % fat, Research Diets, Cat #D12492, USA) for 8 weeks were purchased from Raon Bio (Animal Inc., Republic of Korea). The diet-induced obese mice were additionally fed with 60% high-fat food for 5 weeks after arrival, and then used in the present test. On the day before drug treatment, the mice were grouped based on the average body weight of individual mice (n=6 per group), after which 10 and 30 nmol/kg of FM9-6+Fc_hole alone, 10 and 30 nmol/kg of semaglutide (long-acting GLP-1 derivative, SEQ ID NO: 114) alone as a control drug, and FM9-6+Fc_hole and semaglutide were administered subcutaneously every 2 days (Q2D) for a total of 8 weeks in a combination of 10+10 and 30+30 nmol/kg. The semaglutide that was used in the test was Ozempic® (semaglutide) from Novo NorDisk. Here, for vehicle treatment, DPBS (Dulbecco's phosphate-buffered saline, Gibco, USA) was subcutaneously administered every 2 days (Q2D). Body weight was measured every 2 days from the first day of drug treatment to day 54, and the results thereof are shown in Table 4 below.

For assay [3], the target named is T1, GFRAL/RET/SRE-luc-overexpressing HEK293 cell line (Homo sapiens, UniProt Q6UXV0).
T1 construct: expressed in transfected cells; host or cells: HEK293 (human embryonic kidney 293), overexpressing GFRAL, RET and an SRE-luciferase reporter
T1 sequence (Q6UXV0 19-394, species assumed): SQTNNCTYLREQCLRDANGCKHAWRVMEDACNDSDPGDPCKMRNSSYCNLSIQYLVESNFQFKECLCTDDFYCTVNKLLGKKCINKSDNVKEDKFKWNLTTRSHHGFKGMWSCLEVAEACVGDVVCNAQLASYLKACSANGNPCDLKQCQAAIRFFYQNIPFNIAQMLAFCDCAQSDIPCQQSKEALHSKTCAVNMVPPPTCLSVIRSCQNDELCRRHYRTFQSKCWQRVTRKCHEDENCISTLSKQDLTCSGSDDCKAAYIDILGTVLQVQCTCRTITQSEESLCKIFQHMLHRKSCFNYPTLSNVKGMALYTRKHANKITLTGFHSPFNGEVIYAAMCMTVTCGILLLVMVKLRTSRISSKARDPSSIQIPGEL
T1 sequence (P07949 29-1114 partner, species assumed): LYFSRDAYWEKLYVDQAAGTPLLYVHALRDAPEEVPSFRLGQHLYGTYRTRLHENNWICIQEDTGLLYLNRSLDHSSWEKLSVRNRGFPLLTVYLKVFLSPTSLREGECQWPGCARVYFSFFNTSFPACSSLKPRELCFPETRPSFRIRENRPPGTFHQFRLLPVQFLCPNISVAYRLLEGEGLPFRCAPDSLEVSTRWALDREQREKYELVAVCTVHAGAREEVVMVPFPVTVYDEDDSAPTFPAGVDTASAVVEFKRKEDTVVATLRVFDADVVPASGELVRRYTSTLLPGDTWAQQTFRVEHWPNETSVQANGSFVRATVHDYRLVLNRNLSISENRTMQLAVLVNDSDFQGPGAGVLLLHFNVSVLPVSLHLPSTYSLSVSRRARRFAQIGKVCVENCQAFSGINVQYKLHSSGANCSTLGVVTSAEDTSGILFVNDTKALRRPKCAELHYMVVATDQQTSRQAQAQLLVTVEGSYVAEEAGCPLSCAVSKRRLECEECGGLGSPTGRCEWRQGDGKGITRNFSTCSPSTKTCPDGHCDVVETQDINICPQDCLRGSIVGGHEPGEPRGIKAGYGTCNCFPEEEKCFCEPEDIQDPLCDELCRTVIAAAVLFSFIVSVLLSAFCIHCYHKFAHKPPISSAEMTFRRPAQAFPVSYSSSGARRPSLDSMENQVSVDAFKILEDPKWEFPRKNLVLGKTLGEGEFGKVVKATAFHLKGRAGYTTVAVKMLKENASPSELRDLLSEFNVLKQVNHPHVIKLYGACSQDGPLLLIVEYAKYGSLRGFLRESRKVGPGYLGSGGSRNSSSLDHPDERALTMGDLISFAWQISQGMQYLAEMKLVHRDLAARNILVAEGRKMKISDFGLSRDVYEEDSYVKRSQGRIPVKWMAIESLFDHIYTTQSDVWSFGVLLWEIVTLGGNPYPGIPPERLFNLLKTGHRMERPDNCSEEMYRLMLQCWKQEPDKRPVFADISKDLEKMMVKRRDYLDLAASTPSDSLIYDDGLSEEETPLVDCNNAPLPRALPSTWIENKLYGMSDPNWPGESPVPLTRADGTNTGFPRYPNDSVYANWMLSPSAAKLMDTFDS
In words: Functional activity of long-acting GDF15 fusion protein (Bright-Glo luciferase assay). Format: cell-based. Conditions: relative to FM9-6+Fc_hole (Emax 100%). How it is done: Two variants (FM9+Fc_hole, FM11+Fc_hole) were compared and evaluated for GDF15 activity depending on the linker type and length. The GDF15 activity was measured using a Bright-Glo™ luciferase assay kit (Promega) and a GFRAL/RET/SRE-luc-overexpressing HEK293 cell line (Human embryonic kidney 293).
Specifically, 1×10^5 GFRAL/RET/SRE-luc-overexpressing HEK293 cells were dispended in DMEM containing 10% FBS in each well of a 96-well-plate, followed by culture at 37° C. and 5% CO2 for 24 hours. After 24 hours, each medium of the 96-well plate was replaced with 50 μl of a serum-free medium, followed by culture at 37° C. and 5% CO2 for 4 hours.
In addition, the long-acting GDF15 fusion protein produced in Example 1 was prepared by 3-fold serial dilution from a concentration of 2000 nM using a serum-free medium. Thereafter, 50 μl of the long-acting GDF15 fusion protein dilution was added to each well containing 50 μl of the replaced serum-free medium and the GERAL/RET/SRE-luc cell line so that the actual concentration thereof was serially diluted 3-fold from 1000 nM, followed by reaction at 37° C. and 5% CO2 for 4 hours. After 4 hours, each well was treated with 100 μl of a Bright-Glo™ solution prepared by adding a Bright-Glo™ buffer to a Bright-Glo™ substrate, followed by reaction at room temperature for 1 minute.
Thereafter, the reaction value (relative light units, RLU) was measured using a microplate reader (Perkin Elmer, Wallac Victor X5) capable of measuring luminescence. The results thereof are shown in Table 2 below and in FIGS. 1 and 2. Here, the functional activity of the long-acting GDF15 fusion protein depending on the GDF15 sequence, linker type, and length was compared based on the in-vitro GDF15 activity of FM9-6+Fc_hole (Emax 100%).

Marks after values point to notes of the source that are not given here.

On to “FM9-6 + Fc_hole: long-acting GDF15 fusion protein (dimer): GDF15 ΔN2, S64R, IgG1 Fc_knob/Fc_hole, linker GS(EAAAK)5; SEQ ID NOs: 103 and 47”, for which, in assay [1] (1 nmol/kg s.c. Q3D), the “Change in body weight (%) vs. ob/ob control, Maximum efficacy” value was −21.49 (On Day 29)**** % and the “Change in body weight (%) vs. ob/ob control, Efficacy on Day 29” value was −21.49**** %. Moreover, in assay [1] (10 nmol/kg s.c. Q3D), the “Change in body weight (%) vs. ob/ob control, Maximum efficacy” value is −24.87 (On Day 29)**** % and the “Change in body weight (%) vs. ob/ob control, Efficacy on Day 29” value is reported as −24.87 **** %. Further, in assay [2] (10 nmol/kg s.c. Q2D), the “Change in body weight (%) vs. day 0, Maximum efficacy” value is recorded as −34.57 (On Day 54)**** % and the “Change in body weight (%) vs. day 0, Efficacy on Day 54” value is listed as −34.57**** %. In assay [2] (30 nmol/kg s.c. Q2D), the “Change in body weight (%) vs. day 0, Maximum efficacy” value was −35.07 (On Day 54)**** % and the “Change in body weight (%) vs. day 0, Efficacy on Day 54” value is on record as −35.07**** %. Further, the “Emax (%)” value in assay [3] stood at 100.0%.

For the origin of these results see US20240238380A1, “COMPOSITION FOR COMBINATION THERAPY COMPRISING GROWTH DIFFERENTIATION FACTOR-15 VARIANT AND GLUCAGON-LIKE PEPTIDE-1 RECEPTOR AGONIST” (YUHAN CORPORATION, priority 2021, published 2024).
